# Laboratory results: the pKa sets of Baltruschat and Czodrowski (2020)
# Where a SMILES comes first, the peptide text is derived from it.
# Details: acidic group
row,Compound,pKa
1,C[n+]1cccc(S)c1,2.27
2,CC(=O)[n+]1ccc(N(C)C)cc1,9.55
3,O=C1CSCC(=O)C1,4.34
4,[O-]c1ccc(/C=N/O)cc1,12
5,CN(C)c1nc(/N=N/O)nn1C,5.94
6,CC(C)c1cccc(=O)c(O)c1,7.22
7,O=C1NC(=O)[C@@H]2CCCC[C@H]12,9.72
8,Cc1cc(=O)n2ncnc2[nH]1,6.19
9,COC(=O)/C=C(\O)c1ccncc1,7.51
10,Cc1cc(C#N)cc[n+]1O,-0.67
11,Nc1c[nH]nc1[N+](=O)[O-],9.5
12,C[N+](C)(C)CCCc1cccc(O)c1,9.64
13,O=C(O)c1ccc(=O)oc1,3.26
14,C/C(=N\O)C(=O)[O-],11.4
15,CCCc1c(C)[nH][n+](C)c1[O-],10.5
16,CC(C(N)=O)S(N)(=O)=O (centres undefined),9.86
17,C=C(CCCC)C(=O)O,4.8
18,O=C(O)[C@@H]1O[C@H](Oc2cccc3ccc[nH+]c23)[C@@H](O)[C@H](O)[C@H]1O,3.01
19,O=C(O)c1csc(Cl)n1,3.3
20,CSCC(=O)O,3.67
21,CC1=NCCc2c1[nH]c1ccccc21,14.9
22,[O-]N=C1/C(=N/O)CCC/C1=N\O,11.1
23,C[NH+](C)CCCCCCNC(=O)/C=N/O,8.93
24,CC/C(=N/O)NO,10.7
25,CC1(C(=O)O)CCC=[N+]1[O-] (centres undefined),2.95
26,CCCCCCCC(=O)NO,9.19
27,COC(=O)[n+]1ccc(C)cc1,6.15
28,CN(C)c1ncc2[nH]cnc2n1,10.2
29,O=C(O)CCc1ccoc1,4.44
30,O=C([O-])C(CO)[NH2+]Cc1cc(Cl)ccc1O (centres undefined),7.95

# Continued, values first:
row,pKa,Compound
1,2.01,OC(O)=C1c2ccccc2-c2ccccc21
2,4.68,CCOc1ccccc1/C=C/C(=O)O
3,9.8,O=S(=O)([O-])c1ccc2c(/N=N/c3ccc4[nH]cnc4c3)c(O)c(S(=O)(=O)[O-])cc2c1
4,9.38,Oc1ccc2cccc(-c3ccccc3)c2c1
5,8.1,O=C1C=CC(=Nc2ccc(O)cc2)C=C1
6,6.42,C/N=C(/SC)c1ccccc1
7,7.73,Oc1ccc(/N=N/c2ccncc2)cc1
8,4.35,O=C1C(O)=C(c2ccccc2)C(=O)c2ccccc21
9,4.2,O=C(O)c1ccc2ccccc2c1
10,3.38,CC(O)(c1ccccc1)C(C(=O)O)c1ccc(-c2ccccc2)cc1 (centres undefined)
11,9.8,C=CC(CC(C)(C)C)c1ccc2cccnc2c1O (centres undefined)
12,7.89,Nc1ccc(S(=O)(=O)Nc2cccnc2)cc1
13,8.7,CC[NH+]1CCC[C@@H]1CNC(=O)c1c(O)cccc1OC
14,9.4,Oc1ccc(-c2ccc(O)cc2)cc1
15,3.52,Cc1cccc(SCC(=O)O)c1
16,3.46,Cc1ccccc1SCC(=O)O
17,2.3,N#CC(C#N)=C(c1ccccc1)C(C#N)C#N
18,3.83,Cc1c[n+]([C@@H]2C[C@@H](O)[C@H](CO)O2)c(O)nc1NCCc1ccccc1
19,7.8,O=c1oc2cc(O)ccc2cc1-c1ccccc1
20,4.27,C[Si](C)(C)c1ccc(C(=O)O)cc1
21,10.1,CC(C)(C)N(O)C(=O)c1ccccc1
22,4.23,CSc1ccc(C(=O)O)cc1
23,10.5,CSC(=O)C1c2ccccc2-c2ccccc21
24,6.23,CN(C)S(=O)(=O)c1ccc(NS(=O)(=O)c2ccc(N)cc2)cc1
25,9.15,COc1cccc2c1-c1c(O)cccc1-2

# Same assay, conditions: basic group
row,Compound,pKa
1,CNCCCNC(=O)/C=N/[O-],10.6
2,OCCCNc1nc(NCCCO)nc(NCCCO)n1,5.48
3,c1ccc2nc3ccc4ccccc4c3cc2c1,4.39
4,Fc1ccccn1,-0.44
5,Cc1c[nH+]c([O-])nc1N,4.69
6,COc1cc2c(cc1OC)[C@]13CCN4CC5=CCO[C@@H]6CC(=O)N2[C@@H]1[C@@H]6[C@@H]5C[C@@H]43,5.86
7,O=[N+]([O-])c1ccncc1,1.86
8,N=C(Nc1ccccc1)Nc1ccccc1,9.94
9,NCCCN,10.6
10,C=CCN(CC1CO1)CC1CO1 (centres undefined),6.16
11,C=C(C)C(=O)NC(C)CN(C)C (centres undefined),8.51
12,CC(C)CCNc1ncnc2[nH]ncc12,4.62
13,CN(C)CCCCC(=O)Oc1cccc([N+](=O)[O-])c1,10.1
14,Cn1ccc(=S)cc1,1.36
15,[O-]c1cccnn1,10.5
16,CC(C)C(N)C(C)C,10.4
17,c1cncc(C2=NCCC2)c1,8.77
18,Nc1cccc([NH3+])c1O,2.7
19,CC1CC2CCN1CC2 (centres undefined),11.3
20,NCCSCC[NH3+],8.84
21,Nc1ccccc1Cl,2.64
22,CCN(CC)CCC[C@@H](C)[C@H]1CC[C@H]2[C@@H]3CC[C@@H]4C[C@H](O)CC[C@]4(C)[C@H]3C[C@H](O)[C@]12C,10.3

row,Compound,pKa
1,NCC(=O)N[C@@H](Cc1c[nH]cn1)C(=O)[O-] (H-Gly-His-OH),8.14
2,CNc1ccc[nH+]c1,-2.17
3,c1cc2c(cn1)CCCC2,6.65
4,Cc1cc([O-])[nH+]c([O-])n1,9.29
5,COc1cccc(N)c1,4.23
6,C[C@@H]1CCN2CC=C[C@H]12,10.6
7,CC(C)NCCN,10.6
8,O=C([O-])[C@@H]1CSCN1,6.14
9,CN1C=C(C#N)C=CC1,2.7
10,CC1=NCCc2c1[nH]c1ccccc21,8.99
11,Nc1nnnn1-c1ccc(Cl)cc1,0.78
12,Cc1cc(N)nc(N)n1,7.65
13,CC(O)CNCCO (centres undefined),8.81
14,CC(C)(C)CC(=O)n1ccnc1,3.8
15,CC/C(=N/O)NO,5.15
16,CN[C@H]1CCCC[C@@H]1O,10.2
17,CCC(CO)NCl (centres undefined),1.55
18,CC(N)CC1CCCCC1 (centres undefined),10.1
19,CCCCCCn1ccnc1,7.2
20,CN(C)c1ncc2[nH]cnc2n1,4.02
21,Cc1cc(N)ccc1CN,9.77
22,O=[N+]([O-])c1ccc2[nH]c(CO)nc2c1,2.21

# The remaining lines, values ahead:
row,pKa,Compound
1,5,O=C([O-])c1c2ccccc2nc2ccccc12
2,3.81,OCc1cc(-c2ccccc2)nnc1NCC[NH+]1CCOCC1
3,6.9,CC(CC(c1ccccc1)c1ccccc1)N1CCOCC1 (centres undefined)
4,1.41,CCOc1ccc(Nc2ccccc2)cc1
5,4.19,Nc1ncnc2c1ncn2C1CCCCC1
6,5.57,CCc1cccnc1
7,4.65,Oc1ccc(/N=N/c2ccncc2)cc1
8,3.93,Nc1cnc2ccccc2n1
9,5.63,Nc1ccc2ncccc2c1
10,4.68,O=C([O-])c1cnc2ccccc2c1
11,9.13,CN1CCC(n2nc(-c3ccccc3)c(Cc3ccccc3)c2[O-])CC1
12,4.94,C=CC(CC(C)(C)C)c1ccc2cccnc2c1O (centres undefined)
13,6.49,COc1ccc(-c2nc3cnccc3[nH]2)c(OC)c1
14,3,Nc1ccc(S(=O)(=O)Nc2cccnc2)cc1
15,8.97,NCCC[n+]1ccc2ccccc2c1
16,6.59,NCC[NH2+]CCc1ccccc1
17,9.05,C[C@H](CCCNCc1ccccc1)[C@H]1CC[C@H]2[C@@H]3[C@@H](O)C[C@@H]4C[C@H](O)CC[C@]4(C)[C@H]3CC[C@]12C
18,-2.4,Cc1cc(C)n(-c2cccc[nH+]2)n1
19,7.2,CNc1c2ccccc2nc2cccc([N+](=O)[O-])c12
20,3.39,COc1ccc(/N=N/c2c(N)n[nH]c2N)cc1
21,5.65,Cn1cnc2ccccc21
22,6.72,Nc1ccc2cc3ccc4ccccc4c3nc2c1
23,3.05,Nc1ccc2c(c1Br)CCCC2
24,6.16,COc1ccc(-c2nc3cnccc3n2C)c(OC)c1
25,11.3,[O-]c1ccc(F)cc1CN1CCCCC1
